This experiment concerns the target GSPT1 (Homo sapiens (Human), UniProt P15170+Q96SW2). The experiment is described as follows: immunofluorescence assay for GSPT1 degradation in CAL-51 cells (Example 4). In kind it is cell-based. The method, then: The representative compounds were tested in an immunofluorescence assay for their activity to bind to degrade GSPT1. CAL-51 cells were purchased from DSMZ (cat. Number ACC302), sub-cultured in 90% Dulbecco's MEM (4.5 g/L glucose, Gibco 11965) +10% heat inactivated FBS (BioConcept, 2-01F136I) and incubated at 37° C., 5% CO2. For the assay, imaging microtiterplate Cell Carrier 96 Ultra (Perkin Elmer 6055302) were pre-coated with Fibronectin (Sigma F085, 30 μl at 0.2 μg/ml) in PBS (100 μl, Gibco 14190) for 45 min at room temperature, rinsed with PBS and CAL-51 cells (30 K cells/well) were plated and let to adhere overnight. Cells were treated with compounds typically using a serial dilution ranging from 30 μM to 0.1 nM for 6 hours. Compounds were stored at 10 mM DMSO stocks. Vehicle (DMSO), positive (CC-885, 10 μM) and rescue controls (positive control plus 0.2 μM bortezomib) were also included atthis stage. Cells were subsequently rinsed with PBS and fixed in 10% Formalin solution (50 μl, Sigma HT5011)) for 20 mins at room temperature. Following three consecutive PBS washes (100 μl), cells were permeabilized in 0.1% Triton X-100 in PBS (Sigma 93443, 50 μl) for 15 mins at room temperature. Following three further PBS washes, 50 μl blocking buffer (1% BSA, Sigma A4503, in PBS) was added for 45 min for signal-to-noise reduction.
Primary antibody (human GSPT1, Sigma HPA052488) was diluted in blocking buffer (dil.1/300, 35 μl/well) and incubated with the cells overnight at 4° C. After three PBS washes, Alexa-fluor 488 coupled secondary antibodies (Invitrogen, A32731, dil.1/1000), Alexa-fluor 647-Phalloidin (Invitrogen, A22287, dil.1/200) and DAPI (Thermo, #62248, dil.1/1000) were diluted in blocking buffer and incubated with the samples for 2 hours at room temperature. After three final PBS washes, samples were conserved in 100 μl PBS in the dark, until measurement. Image acquisition was performed on the Operetta High-Content Imager (Perkin-Elmer). Fluorescence intensity of Alexa-Fluor 488 (GSPT1), Alexa-Fluor 647 (Actin) and DAPI (Nucleus) were measured. For the determination of GSPT1 DC50 values, a custom algorithm implemented in the PerkinElmer image analysis software Harmony-Acapella® was developed. After user-defined setting of adjustment parameters, the analysis was run identically without human intervention for all image fields. DAPI staining of the nuclei was used to determine the location of cells using standard nuclei detection modules. Segmentation artifacts were removed by threshold-based filters for area, roundness and intensity. The outline of the cells was determined analogously from the sum of the normalized, smoothed DAPI and Actin channel, starting from each nucleus. The Alexa-Fluor 488 (GSPT1) signal intensity in each cell was finally measured, in order to obtain a Mean intensity per cell. GSPT1 degradation (DC50) was calculated after normalization to controls and data import in CDD vault Database, using non-linear regression.

The mark [1] stands for this setting: 6 hours, read-out: Activity for GSPT1 degradation, Code (DC50).
The mark [2] stands for this setting: GSPT1 degradation, read-out: DC50 value.

Where two headings read alike, the source gives them in different places.

GSPT1, sequence (P15170 whole entry): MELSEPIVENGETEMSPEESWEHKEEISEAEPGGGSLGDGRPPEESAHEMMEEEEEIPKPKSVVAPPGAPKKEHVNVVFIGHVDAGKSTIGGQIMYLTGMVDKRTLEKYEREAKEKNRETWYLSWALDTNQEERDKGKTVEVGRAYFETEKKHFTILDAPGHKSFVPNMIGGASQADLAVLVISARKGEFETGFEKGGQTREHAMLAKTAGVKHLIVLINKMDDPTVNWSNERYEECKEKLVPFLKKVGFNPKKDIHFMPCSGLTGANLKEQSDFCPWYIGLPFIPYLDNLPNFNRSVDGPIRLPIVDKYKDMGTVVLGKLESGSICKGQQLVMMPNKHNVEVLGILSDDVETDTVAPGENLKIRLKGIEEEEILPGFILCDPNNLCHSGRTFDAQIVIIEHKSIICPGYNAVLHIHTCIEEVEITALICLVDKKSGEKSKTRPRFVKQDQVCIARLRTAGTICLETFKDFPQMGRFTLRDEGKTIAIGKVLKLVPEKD
GSPT1, sequence (Q96SW2 whole entry): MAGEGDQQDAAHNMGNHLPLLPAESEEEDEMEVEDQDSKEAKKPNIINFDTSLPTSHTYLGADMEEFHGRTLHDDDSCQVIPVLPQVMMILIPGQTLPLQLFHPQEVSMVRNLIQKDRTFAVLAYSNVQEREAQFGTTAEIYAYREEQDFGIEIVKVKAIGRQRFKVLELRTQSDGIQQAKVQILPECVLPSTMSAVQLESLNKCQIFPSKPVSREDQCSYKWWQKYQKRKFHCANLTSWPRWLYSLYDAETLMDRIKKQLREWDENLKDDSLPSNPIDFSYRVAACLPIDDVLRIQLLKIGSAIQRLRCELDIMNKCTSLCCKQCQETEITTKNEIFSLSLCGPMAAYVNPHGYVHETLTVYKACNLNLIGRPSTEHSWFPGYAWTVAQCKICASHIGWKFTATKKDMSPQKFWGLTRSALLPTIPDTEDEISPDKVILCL
GSPT1, sequence (Q16531 2-1140 partner): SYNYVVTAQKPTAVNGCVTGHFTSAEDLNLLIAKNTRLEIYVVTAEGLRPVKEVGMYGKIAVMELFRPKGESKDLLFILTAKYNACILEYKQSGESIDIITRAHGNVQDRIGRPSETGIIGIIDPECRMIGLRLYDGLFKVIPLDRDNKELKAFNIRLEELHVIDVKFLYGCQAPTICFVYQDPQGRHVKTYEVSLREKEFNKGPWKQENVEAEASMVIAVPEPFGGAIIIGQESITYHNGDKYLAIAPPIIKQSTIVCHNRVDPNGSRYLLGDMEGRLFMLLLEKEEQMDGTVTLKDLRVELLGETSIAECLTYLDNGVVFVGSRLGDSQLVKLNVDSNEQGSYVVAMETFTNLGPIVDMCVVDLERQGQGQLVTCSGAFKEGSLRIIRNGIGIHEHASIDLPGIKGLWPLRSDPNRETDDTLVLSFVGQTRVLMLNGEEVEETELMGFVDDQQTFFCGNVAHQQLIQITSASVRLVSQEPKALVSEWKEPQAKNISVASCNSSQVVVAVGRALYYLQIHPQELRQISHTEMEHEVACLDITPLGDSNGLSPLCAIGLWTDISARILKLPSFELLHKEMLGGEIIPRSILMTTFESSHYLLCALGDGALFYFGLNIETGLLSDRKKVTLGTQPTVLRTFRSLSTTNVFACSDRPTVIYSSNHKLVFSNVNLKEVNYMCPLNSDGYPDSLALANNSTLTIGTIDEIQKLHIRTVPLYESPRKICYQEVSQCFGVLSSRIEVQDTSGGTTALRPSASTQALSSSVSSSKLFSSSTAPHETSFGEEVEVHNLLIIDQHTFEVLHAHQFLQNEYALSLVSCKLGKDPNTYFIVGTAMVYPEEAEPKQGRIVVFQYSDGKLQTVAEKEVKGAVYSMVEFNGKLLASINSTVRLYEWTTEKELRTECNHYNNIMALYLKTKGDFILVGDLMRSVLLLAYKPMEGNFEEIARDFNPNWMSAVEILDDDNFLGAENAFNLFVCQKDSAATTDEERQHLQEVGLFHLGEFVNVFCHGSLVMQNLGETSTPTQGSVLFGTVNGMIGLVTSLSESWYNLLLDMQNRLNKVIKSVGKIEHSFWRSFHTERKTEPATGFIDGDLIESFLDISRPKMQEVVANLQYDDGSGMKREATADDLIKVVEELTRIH

As a reminder, the DC50 is the midpoint of the concentration-degradation curve. `Cc1cc(NC(=O)OCc2ccc3c(c2)C(=O)N(C2CCC(=O)NC2=O)C3)cc(C(C)(C)C)n1` (stereo not drawn) [Compound 118]: the DC50 is below 30 nM under setting [1] and at most 30 nM under setting [2]. The like results for `COc1cc(NC(=O)OCc2ccc3c(c2)C(=O)N(C2CCC(=O)NC2=O)C3)cnc1-c1ccccc1` (stereo not drawn) [Compound 90] were, in that order, below 30 nM and at most 30 nM. Turning to `COc1ccc(Cl)cc1NC(=O)OCc1ccc2c(c1)C(=O)N(C1CCC(=O)NC1=O)C2` (stereo not drawn) [Compound 14], the DC50 under setting [1] was above 300 nM. Turning to `Cc1cc(NC(=O)OCc2ccc3c(c2)C(=O)N(C2CCC(=O)NC2=O)C3)cc(F)c1C` (stereo not drawn) [Compound 117], the DC50 under setting [1] was 30 to 300 nM. On the same count and under the same terms, the result for `O=C1CCC(N2Cc3ccc(COC(=O)Nc4cc(OC(F)(F)F)ccc4F)cc3C2=O)C(=O)N1` (stereo not drawn) [Compound 145, (2-(2,6-dioxopiperidin-3-yl)-3-oxoisoindolin-5-yl)methyl(2-fluoro-5-(trifluoromethoxy)phenyl)carbamate] reads 30 to 300 nM. Still for that read-out and setting: the result for `CCc1nscc1NC(=O)OCc1ccc2c(c1)C(=O)N(C1CCC(=O)NC1=O)C2` (stereo not drawn) [Compound 147] reads above 300 nM. As to `CC(C)(C)c1ccc(NC(=O)OCc2ccc3c(c2)C(=O)N(C2CCC(=O)NC2=O)C3)c(F)c1` (stereo not drawn) [Compound 142, (2-(2,6-dioxopiperidin-3-yl)-3-oxoisoindolin-5-yl)methyl (4-(tert-butyl)-2-fluorophenyl)carbamate], the half-maximal degradation concentration (DC50) under setting [1] is 30 to 300 nM. Turning to `Cc1cc(C)c(NC(=O)OCc2ccc3c(c2)C(=O)N(C2CCC(=O)NC2=O)C3)cc1Cl` (stereo not drawn) [Compound 123, (2-(2,6-dioxopiperidin-3-yl)-3-oxoisoindolin-5-yl) methyl (5-chloro-2,4-dimethylphenyl)carbamate], under setting [1], the DC50 was above 300 nM. Take `CCc1cc(NC(=O)OCc2ccc3c(c2)C(=O)N(C2CCC(=O)NC2=O)C3)cc(C)n1` (stereo not drawn) [Compound 71]: the DC50 under setting [1] fell in the range of 30 to 300 nM. On the same count and under the same terms, the result for `Cc1cc(Cl)cc(NC(=O)OCc2ccc3c(c2)C(=O)N(C2CCC(=O)NC2=O)C3)c1` (stereo not drawn) [Compound 144, (2-(2,6-dioxopiperidin-3-yl)-3-oxoisoindolin-5-yl)methyl (3-chloro-5-methylphenyl)carbamate] reads 30 to 300 nM; that for `O=C1CCC(N2Cc3ccc(COC(=O)Nc4ccccc4)cc3C2=O)C(=O)N1` (stereo not drawn) [Compound 138, (2-(2,6-dioxopiperidin-3-yl)-3-oxoisoindolin-5-yl)methyl phenylcarbamate], above 300 nM. Same read-out and setting: next, `O=C1CCC(N2Cc3ccc(COC(=O)NC4CCCCC4)cc3C2=O)C(=O)N1` (stereo not drawn) [Compound 28]: above 300 nM.

For the compound `O=C1CCC(N2Cc3ccc(COC(=O)Nc4ccc(C5(F)CC5)nc4)cc3C2=O)C(=O)N1` (stereo not drawn) [Compound 109, (2-(2,6-dioxopiperidin-3-yl)-3-oxoisoindolin-5-yl)methyl (6-(1-fluorocyclopropyl)pyridin-3-yl)carbamate], the DC50 was below 30 nM under setting [1] and at most 30 nM under setting [2].

As to `O=C1CCC(N2Cc3ccc(COC(=O)Nc4ccc5c(c4)OC(F)(F)O5)cc3C2=O)C(=O)N1` (stereo not drawn) [Compound 79], the DC50 is, setting by setting: under setting [1], below 30 nM; under setting [2], at most 30 nM. Regarding `O=C1CCC(N2Cc3ccc(COC(=O)Nc4ccc5c(c4)CCC5)cc3C2=O)C(=O)N1` (stereo not drawn) [Compound 56], the DC50 under setting [1] lay in the range of 30 to 300 nM. For `O=C1CCC(N2Cc3ccc(COC(=O)Nc4cc(F)c(F)c(Cl)c4)cc3C2=O)C(=O)N1` (stereo not drawn) [Compound 132], the DC50 under setting [1] was in the range of 30 to 300 nM. As for `O=C1CCC(N2Cc3ccc(COC(=O)Nc4cc(Cl)cc(OC5CCNC5)c4)cc3C2=O)C(=O)N1` (stereo not drawn) [Compound 20], the DC50 under setting [1] is above 300 nM. Still for that read-out and setting: the result for `Cc1c(F)cc(NC(=O)OCc2ccc3c(c2)C(=O)N(C2CCC(=O)NC2=O)C3)cc1F` (stereo not drawn) [Compound 127, (2-(2,6-dioxopiperidin-3-yl)-3-oxoisoindolin-5-yl)methyl (3,5-difluoro-4-methylphenyl)carbamate] reads 30 to 300 nM; that for `Cc1ccc(OC(F)(F)F)cc1NC(=O)OCc1ccc2c(c1)C(=O)N(C1CCC(=O)NC1=O)C2` (stereo not drawn) [Compound 128], above 300 nM. On to `O=C1CCC(N2Cc3ccc(COC(=O)Nc4cc(OCCN5CCOCC5)cc(OC(F)F)c4)cc3C2=O)C(=O)N1` (stereo not drawn) [Compound 96], for which the DC50 is below 30 nM under setting [1] and at most 30 nM under setting [2]. Take `Cc1cc(F)c(NC(=O)OCc2ccc3c(c2)C(=O)N(C2CCC(=O)NC2=O)C3)cc1Cl` (stereo not drawn) [Compound 141, (2-(2,6-dioxopiperidin-3-yl)-3-oxoisoindolin-5-yl)methyl (5-chloro-2-fluoro-4-methylphenyl)carbamate]: the DC50 under setting [1] lay in the range of 30 to 300 nM.

In the case of `O=C1CCC(N2Cc3ccc(COC(=O)Nc4cccc(OC(F)F)c4)cc3C2=O)C(=O)N1` (stereo not drawn) [Compound 5], the DC50 was below 30 nM under setting [1] and at most 30 nM under setting [2].

For `CCOc1cc(NC(=O)OCc2ccc3c(c2)C(=O)N(C2CCC(=O)NC2=O)C3)ccc1C` (stereo not drawn) [Compound 33], the DC50 under setting [1] fell in the range of 30 to 300 nM. With `O=C1CCC(N2Cc3ccc(COC(=O)NC4COC(c5ccccc5)OC4)cc3C2=O)C(=O)N1` (stereo not drawn) [Compound 130], the DC50 under setting [1] was above 300 nM.

`CC(C)(C)C12CC(NC(=O)OCc3ccc4c(c3)C(=O)N(C3CCC(=O)NC3=O)C4)(C1)C2` (stereo not drawn) [Compound 120, (2-(2,6-dioxopiperidin-3-yl)-3-oxoisoindolin-5-yl)methyl (3-(tert-butyl)bicyclo[1.1.1]pentan-1-yl)carbamate]: the DC50 under setting [1] fell in the range of 30 to 300 nM. On the same count and under the same terms, the result for `O=C1CCC(N2Cc3ccc(COC(=O)Nc4cc(F)cc(Cl)c4)cc3C2=O)C(=O)N1` (stereo not drawn) [Compound 12] reads 30 to 300 nM. In the case of `CC(C)(C)c1cccc(NC(=O)OCc2ccc3c(c2)C(=O)N(C2CCC(=O)NC2=O)C3)c1` (stereo not drawn) [Compound 153, (2-(2,6-dioxopiperidin-3-yl)-3-oxoisoindolin-5-yl)methyl (3-(tert-butyl)phenyl)carbamate], the DC50 by setting is: under setting [1], below 30 nM; under setting [2], at most 30 nM. For the compound `Cc1cc(F)cc(NC(=O)OCc2ccc3c(c2)C(=O)N(C2CCC(=O)NC2=O)C3)c1` (stereo not drawn) [Compound 146, (2-(2,6-dioxopiperidin-3-yl)-3-oxoisoindolin-5-yl)methyl (3-fluoro-5-methylphenyl) carbamate], the DC50 under setting [1] was 30 to 300 nM. `O=C1CCC(N2Cc3ccc(COC(=O)Nc4cc(C(F)(F)F)ns4)cc3C2=O)C(=O)N1` (stereo not drawn) [Compound 139]: the DC50 under setting [1] lay within 30 to 300 nM. As to `O=C1CCC(N2Cc3ccc(COC(=O)Nc4cc(CN5CCOCC5)cc(OC(F)F)c4)cc3C2=O)C(=O)N1` (stereo not drawn) [Compound 95], the DC50 under setting [1] was below 30 nM and the DC50 under setting [2] was at most 30 nM.

Regarding `Cc1ccc(NC(=O)OCc2ccc3c(c2)C(=O)N(C2CCC(=O)NC2=O)C3)cc1F` (stereo not drawn) [Compound 133, (2-(2,6-dioxopiperidin-3-yl)-3-oxoisoindolin-5-yl)methyl (3-fluoro-4-methylphenyl)carbamate], under setting [1], the DC50 lay within 30 to 300 nM. Take `O=C1CCC(N2Cc3ccc(COC(=O)Nc4ccc(F)c(Cl)c4)cc3C2=O)C(=O)N1` (stereo not drawn) [Compound 9]: the DC50 under setting [1] was 30 to 300 nM. On to `CC(C)(C)c1ccc(NC(=O)OCc2ccc3c(c2)C(=O)N(C2CCC(=O)NC2=O)C3)nc1` (stereo not drawn) [Compound 131, (2-(2,6-dioxopiperidin-3-yl)-3-oxoisoindolin-5-yl)methyl (5-(tert-butyl)pyridin-2-yl)carbamate], for which the DC50 under setting [1] lay within 30 to 300 nM.

Turning to `Cc1cc(Cl)c(NC(=O)OCc2ccc3c(c2)C(=O)N(C2CCC(=O)NC2=O)C3)cc1Cl` (stereo not drawn) [Compound 119], the DC50 under setting [1] was above 300 nM.

For the origin of these results see US11912682B2, “Isoindolinone compounds” (Monte Rosa Therapeutics, Inc., priority 2021, dated 2024).
